The structures appear in SMILES notation.

Vasopressin V1a receptor, sequence (P37288 whole entry): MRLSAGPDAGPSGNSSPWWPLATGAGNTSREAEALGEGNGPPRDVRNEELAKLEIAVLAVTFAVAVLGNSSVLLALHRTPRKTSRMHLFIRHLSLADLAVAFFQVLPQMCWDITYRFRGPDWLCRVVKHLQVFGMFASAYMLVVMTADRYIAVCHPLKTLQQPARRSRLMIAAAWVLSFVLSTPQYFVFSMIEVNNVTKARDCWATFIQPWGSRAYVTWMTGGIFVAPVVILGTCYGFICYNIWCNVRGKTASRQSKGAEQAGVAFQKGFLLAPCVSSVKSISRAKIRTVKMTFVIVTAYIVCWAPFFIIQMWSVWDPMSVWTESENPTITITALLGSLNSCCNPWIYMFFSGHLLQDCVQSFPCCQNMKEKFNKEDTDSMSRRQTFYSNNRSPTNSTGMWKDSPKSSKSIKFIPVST
Cytochrome P450 2C19, sequence (P33261 whole entry): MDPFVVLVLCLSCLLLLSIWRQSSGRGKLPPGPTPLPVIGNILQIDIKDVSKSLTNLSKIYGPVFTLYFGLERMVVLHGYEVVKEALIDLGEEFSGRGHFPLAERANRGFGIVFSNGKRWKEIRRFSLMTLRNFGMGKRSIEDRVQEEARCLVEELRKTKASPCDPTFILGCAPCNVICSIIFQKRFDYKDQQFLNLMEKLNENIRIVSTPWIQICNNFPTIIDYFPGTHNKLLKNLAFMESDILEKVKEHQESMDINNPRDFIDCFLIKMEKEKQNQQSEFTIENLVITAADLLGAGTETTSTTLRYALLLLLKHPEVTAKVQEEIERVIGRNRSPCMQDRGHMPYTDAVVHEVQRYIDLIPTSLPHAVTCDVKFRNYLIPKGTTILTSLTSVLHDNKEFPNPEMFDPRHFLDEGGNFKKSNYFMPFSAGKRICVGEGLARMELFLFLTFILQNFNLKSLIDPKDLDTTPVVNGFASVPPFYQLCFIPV
Cytochrome P450 3A4, sequence (P08684 whole entry): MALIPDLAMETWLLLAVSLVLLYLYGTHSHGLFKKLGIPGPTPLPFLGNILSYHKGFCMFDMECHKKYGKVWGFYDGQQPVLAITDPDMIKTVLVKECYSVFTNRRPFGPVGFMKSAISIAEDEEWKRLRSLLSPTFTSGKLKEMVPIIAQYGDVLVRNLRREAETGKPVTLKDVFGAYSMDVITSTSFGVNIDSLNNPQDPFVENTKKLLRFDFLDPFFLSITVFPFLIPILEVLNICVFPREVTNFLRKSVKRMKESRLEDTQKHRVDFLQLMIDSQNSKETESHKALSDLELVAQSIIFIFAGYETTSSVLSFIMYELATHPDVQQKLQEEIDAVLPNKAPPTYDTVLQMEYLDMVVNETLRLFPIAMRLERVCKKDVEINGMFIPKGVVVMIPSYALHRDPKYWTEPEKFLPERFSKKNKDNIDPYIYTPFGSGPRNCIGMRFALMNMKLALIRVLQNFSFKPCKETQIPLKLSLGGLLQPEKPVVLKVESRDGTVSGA

The target in one data set is Acetylcholinesterase (Homo sapiens, UniProt P22303). Description: DRUGMATRIX: Acetylcholinesterase enzyme inhibition (substrate: acetylthiocholine). The data set is classed as cell-based, HEK293. The following applies: hek293; Not Active = under 50% inhibition at 10 µM.
Acetylcholinesterase, sequence (P22303 whole entry): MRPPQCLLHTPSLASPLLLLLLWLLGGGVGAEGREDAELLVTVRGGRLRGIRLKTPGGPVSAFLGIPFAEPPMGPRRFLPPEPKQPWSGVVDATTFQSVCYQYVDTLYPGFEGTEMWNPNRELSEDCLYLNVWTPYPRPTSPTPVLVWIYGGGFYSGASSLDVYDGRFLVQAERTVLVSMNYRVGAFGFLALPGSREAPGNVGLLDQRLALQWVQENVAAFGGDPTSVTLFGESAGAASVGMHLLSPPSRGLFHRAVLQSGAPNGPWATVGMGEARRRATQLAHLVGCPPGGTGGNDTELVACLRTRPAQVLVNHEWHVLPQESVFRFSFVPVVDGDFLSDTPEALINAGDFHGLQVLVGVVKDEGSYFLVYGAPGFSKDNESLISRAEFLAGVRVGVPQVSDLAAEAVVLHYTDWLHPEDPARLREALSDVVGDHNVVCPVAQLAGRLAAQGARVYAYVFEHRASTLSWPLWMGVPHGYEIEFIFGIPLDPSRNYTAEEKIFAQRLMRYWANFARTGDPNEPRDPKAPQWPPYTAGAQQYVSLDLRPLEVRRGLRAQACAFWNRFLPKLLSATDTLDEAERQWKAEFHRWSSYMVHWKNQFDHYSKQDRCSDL
Take `COc1ccc([C@@H]2Sc3ccccc3N(CCN(C)C)C(=O)[C@@H]2OC(C)=O)cc1` [DILTIAZEM]: the IC50 result is given as “Not Active”.

Take `NCC(=O)O` [GLYCINE]: the IC50 result is recorded as “Not Active”.

In the case of `O=C(O)c1cn(C2CC2)c2cc(N3CCNCC3)c(F)cc2c1=O` [CIPROFLOXACIN], the IC50 result is reported as “Not Active”.

Consider `O=C1OCCN1/N=C/c1ccc([N+](=O)[O-])o1` [FURAZOLIDONE], for which the IC50 entry is “Not Active”.

A further data set concerns the target Vasopressin V1a receptor (Homo sapiens, UniProt P37288). Further: in other assays of this panel Not Active means under 50% inhibition at 10 µM.
Assay: not given
The data set is classed as cell membranes, Membrane. Conditions: hek293.
As to `CNC(=O)Oc1ccc2c(c1)[C@]1(C)CCN(C)[C@@H]1N2C` [PHYSOSTIGMINE], the IC50 entry is reported as “Not Active”.

For the molecule `COc1ccc([C@@H]2Sc3ccccc3N(CCN(C)C)C(=O)[C@@H]2OC(C)=O)cc1` [DILTIAZEM], the IC50 result is “Not Active”.

`NCC(=O)O` [GLYCINE]: the IC50 result is on record as “Not Active”.

Take `O=C(O)c1cn(C2CC2)c2cc(N3CCNCC3)c(F)cc2c1=O` [CIPROFLOXACIN]: the IC50 result was “Not Active”.

Regarding `C/C=C1\[C@H]2C=C(C)C[C@]1(N)c1ccc(=O)[nH]c1C2` [HUPERZINE A], the IC50 entry is reported as “Not Active”.

For the molecule `O=C1OCCN1/N=C/c1ccc([N+](=O)[O-])o1` [FURAZOLIDONE], the IC50 result is given as “Not Active”.

The target in the next data set is Carbonic anhydrase 2 (Homo sapiens, UniProt P00918). Description: DRUGMATRIX: Carbonic Anhydrase II enzyme inhibition (substrate: 4-Nitrophenyl acetate (4-NPA)). In kind it is tissue-based, Erythrocyte. Conditions: erythrocyte; Not Active = under 50% inhibition at 10 µM.
Turning to `CNC(=O)Oc1ccc2c(c1)[C@]1(C)CCN(C)[C@@H]1N2C` [PHYSOSTIGMINE], the IC50 entry is “Not Active”.

As for `COc1ccc([C@@H]2Sc3ccccc3N(CCN(C)C)C(=O)[C@@H]2OC(C)=O)cc1` [DILTIAZEM], the IC50 entry is given as “Not Active”.

In the case of `NCC(=O)O` [GLYCINE], the IC50 result was “Not Active”.

Consider `O=C(O)c1cn(C2CC2)c2cc(N3CCNCC3)c(F)cc2c1=O` [CIPROFLOXACIN], for which the IC50 entry is “Not Active”.

Take `C/C=C1\[C@H]2C=C(C)C[C@]1(N)c1ccc(=O)[nH]c1C2` [HUPERZINE A]: the IC50 entry is given as “Not Active”.

With `O=C1OCCN1/N=C/c1ccc([N+](=O)[O-])o1` [FURAZOLIDONE], the IC50 result is given as “Not Active”.

A further data set has as its target Cytochrome P450 3A4 (Homo sapiens, UniProt P08684). Further: in other assays of this panel Not Active means under 50% inhibition at 10 µM.
Assay: not given
The following applies: bti-tn-5b1-4.
`CNC(=O)Oc1ccc2c(c1)[C@]1(C)CCN(C)[C@@H]1N2C` [PHYSOSTIGMINE]: the IC50 entry is listed as “Not Active” and the Ki result was “Not Active”.

With `C/C=C1\[C@H]2C=C(C)C[C@]1(N)c1ccc(=O)[nH]c1C2` [HUPERZINE A], the IC50 entry was “Not Active” and the Ki result is recorded as “Not Active”.

In another data set the target is T1, Neuropeptide Y receptor type 2 (Homo sapiens, UniProt P49146). Further: in other assays of this panel Not Active means under 50% inhibition at 10 µM.
T1 sequence (P49146 whole entry): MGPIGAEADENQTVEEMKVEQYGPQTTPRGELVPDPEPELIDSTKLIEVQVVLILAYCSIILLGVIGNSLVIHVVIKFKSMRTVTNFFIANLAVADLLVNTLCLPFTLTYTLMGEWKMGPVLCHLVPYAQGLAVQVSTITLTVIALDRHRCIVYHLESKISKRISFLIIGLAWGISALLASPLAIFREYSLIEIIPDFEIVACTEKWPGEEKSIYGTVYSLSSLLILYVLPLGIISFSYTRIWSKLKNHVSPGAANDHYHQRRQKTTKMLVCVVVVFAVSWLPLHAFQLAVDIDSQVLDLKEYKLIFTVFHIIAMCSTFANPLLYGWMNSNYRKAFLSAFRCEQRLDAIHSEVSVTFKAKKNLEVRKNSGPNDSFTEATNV
Assay: not given
In kind it is cell membranes, Membrane. The following applies: kan-ts.
As for `CNC(=O)Oc1ccc2c(c1)[C@]1(C)CCN(C)[C@@H]1N2C` [PHYSOSTIGMINE], the IC50 entry is “Not Active”.

Consider `COc1ccc([C@@H]2Sc3ccccc3N(CCN(C)C)C(=O)[C@@H]2OC(C)=O)cc1` [DILTIAZEM], for which the IC50 result was “Not Active”.

In the case of `NCC(=O)O` [GLYCINE], the IC50 entry is recorded as “Not Active”.

On to `O=C(O)c1cn(C2CC2)c2cc(N3CCNCC3)c(F)cc2c1=O` [CIPROFLOXACIN], for which the IC50 entry was “Not Active”.

For `C/C=C1\[C@H]2C=C(C)C[C@]1(N)c1ccc(=O)[nH]c1C2` [HUPERZINE A], the IC50 entry is “Not Active”.

As to `O=C1OCCN1/N=C/c1ccc([N+](=O)[O-])o1` [FURAZOLIDONE], the IC50 result is “Not Active”.

For a further data set, the target named is T2, Cytochrome P450 2A6 (Homo sapiens, UniProt P11509). Further: in other assays of this panel Not Active means under 50% inhibition at 10 µM.
T2 sequence (P11509 whole entry): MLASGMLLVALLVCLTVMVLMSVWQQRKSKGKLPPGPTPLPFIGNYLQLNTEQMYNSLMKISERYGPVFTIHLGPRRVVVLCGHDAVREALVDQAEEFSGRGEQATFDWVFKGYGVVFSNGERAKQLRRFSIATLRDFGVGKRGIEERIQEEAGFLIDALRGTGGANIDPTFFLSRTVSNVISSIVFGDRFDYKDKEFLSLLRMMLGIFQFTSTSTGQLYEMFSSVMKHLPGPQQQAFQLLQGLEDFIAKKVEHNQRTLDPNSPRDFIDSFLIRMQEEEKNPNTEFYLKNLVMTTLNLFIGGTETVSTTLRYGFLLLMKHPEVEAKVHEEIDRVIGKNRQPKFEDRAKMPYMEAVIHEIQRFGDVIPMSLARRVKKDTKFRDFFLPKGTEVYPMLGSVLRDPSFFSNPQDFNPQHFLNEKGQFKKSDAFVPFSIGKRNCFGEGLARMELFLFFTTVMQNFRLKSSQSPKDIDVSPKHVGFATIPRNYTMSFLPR
Assay: not given
Conditions: bti-tn-5b1-4.
Take `CNC(=O)Oc1ccc2c(c1)[C@]1(C)CCN(C)[C@@H]1N2C` [PHYSOSTIGMINE]: the IC50 entry is reported as “Not Active” and the Ki entry is recorded as “Not Active”.

With `COc1ccc([C@@H]2Sc3ccccc3N(CCN(C)C)C(=O)[C@@H]2OC(C)=O)cc1` [DILTIAZEM], the IC50 entry is reported as “Not Active” and the Ki entry is listed as “Not Active”.

As for `O=C(O)c1cn(C2CC2)c2cc(N3CCNCC3)c(F)cc2c1=O` [CIPROFLOXACIN], the IC50 result is “Not Active” and the Ki entry is listed as “Not Active”.

On to `C/C=C1\[C@H]2C=C(C)C[C@]1(N)c1ccc(=O)[nH]c1C2` [HUPERZINE A], for which the IC50 result is “Not Active” and the Ki entry is on record as “Not Active”.

In a further data set the target is Voltage-gated inwardly rectifying potassium channel KCNH2 (Homo sapiens, UniProt Q12809). Further: in other assays of this panel Not Active means under 50% inhibition at 10 µM.
Voltage-gated inwardly rectifying potassium channel KCNH2, sequence (Q12809 whole entry): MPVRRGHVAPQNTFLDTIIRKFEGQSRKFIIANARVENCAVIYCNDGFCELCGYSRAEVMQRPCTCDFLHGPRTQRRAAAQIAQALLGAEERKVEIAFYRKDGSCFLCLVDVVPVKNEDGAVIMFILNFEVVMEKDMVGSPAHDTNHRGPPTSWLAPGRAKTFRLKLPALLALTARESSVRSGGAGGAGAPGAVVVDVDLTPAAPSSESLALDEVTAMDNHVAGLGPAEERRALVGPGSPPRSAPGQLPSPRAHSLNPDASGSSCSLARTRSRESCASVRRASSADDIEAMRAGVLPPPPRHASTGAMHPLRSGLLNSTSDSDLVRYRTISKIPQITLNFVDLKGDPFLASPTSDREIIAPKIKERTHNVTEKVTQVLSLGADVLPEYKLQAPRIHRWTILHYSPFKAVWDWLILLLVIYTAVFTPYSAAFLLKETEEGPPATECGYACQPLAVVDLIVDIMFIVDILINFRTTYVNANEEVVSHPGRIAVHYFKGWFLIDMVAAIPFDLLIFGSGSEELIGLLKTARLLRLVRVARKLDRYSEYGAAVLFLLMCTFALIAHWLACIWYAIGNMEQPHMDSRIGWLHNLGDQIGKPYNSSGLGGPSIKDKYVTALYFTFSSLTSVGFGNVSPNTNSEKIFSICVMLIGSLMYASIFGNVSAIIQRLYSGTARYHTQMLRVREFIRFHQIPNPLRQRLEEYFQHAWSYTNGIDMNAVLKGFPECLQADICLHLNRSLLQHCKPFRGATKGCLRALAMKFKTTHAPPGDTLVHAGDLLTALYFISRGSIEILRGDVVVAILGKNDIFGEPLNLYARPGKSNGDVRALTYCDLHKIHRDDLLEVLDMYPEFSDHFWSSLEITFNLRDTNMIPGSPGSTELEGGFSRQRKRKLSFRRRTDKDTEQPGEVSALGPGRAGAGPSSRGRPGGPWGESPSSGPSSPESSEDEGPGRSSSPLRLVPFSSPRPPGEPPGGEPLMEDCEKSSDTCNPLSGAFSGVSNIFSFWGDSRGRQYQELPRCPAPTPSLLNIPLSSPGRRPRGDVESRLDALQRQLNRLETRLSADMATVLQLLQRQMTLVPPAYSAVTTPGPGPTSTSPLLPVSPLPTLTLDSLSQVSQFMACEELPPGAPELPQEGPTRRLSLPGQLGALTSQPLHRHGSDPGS
Assay: not given
The following applies: hek293.
For `CNC(=O)Oc1ccc2c(c1)[C@]1(C)CCN(C)[C@@H]1N2C` [PHYSOSTIGMINE], the IC50 result is listed as “Not Active” and the Ki entry is recorded as “Not Active”.

Consider `NCC(=O)O` [GLYCINE], for which the IC50 entry is given as “Not Active” and the Ki result is “Not Active”.

In the case of `C/C=C1\[C@H]2C=C(C)C[C@]1(N)c1ccc(=O)[nH]c1C2` [HUPERZINE A], the IC50 result is reported as “Not Active” and the Ki entry is on record as “Not Active”.

A further data set deals with T3, Cytochrome P450 1A2 (Homo sapiens, UniProt P05177).
T3 sequence (P05177 whole entry): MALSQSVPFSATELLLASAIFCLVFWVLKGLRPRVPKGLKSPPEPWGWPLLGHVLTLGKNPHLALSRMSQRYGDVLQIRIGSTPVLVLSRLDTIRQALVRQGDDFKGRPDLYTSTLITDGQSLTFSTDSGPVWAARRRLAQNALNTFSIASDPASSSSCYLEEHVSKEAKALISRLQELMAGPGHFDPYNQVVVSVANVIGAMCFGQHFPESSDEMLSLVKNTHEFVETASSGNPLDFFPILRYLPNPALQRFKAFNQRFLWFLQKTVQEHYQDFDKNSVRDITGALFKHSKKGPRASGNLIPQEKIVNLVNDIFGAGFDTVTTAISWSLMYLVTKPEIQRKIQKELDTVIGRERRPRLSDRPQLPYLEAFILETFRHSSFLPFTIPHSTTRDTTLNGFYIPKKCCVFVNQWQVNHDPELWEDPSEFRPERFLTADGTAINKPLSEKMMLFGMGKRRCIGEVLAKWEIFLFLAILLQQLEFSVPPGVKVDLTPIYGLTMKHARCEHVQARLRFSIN
Assay: not given
The following applies: bti-tn-5b1-4.
In the case of `CNC(=O)Oc1ccc2c(c1)[C@]1(C)CCN(C)[C@@H]1N2C` [PHYSOSTIGMINE], the IC50 entry is reported as “Not Active” and the Ki result is reported as “Not Active”.

On to `COc1ccc([C@@H]2Sc3ccccc3N(CCN(C)C)C(=O)[C@@H]2OC(C)=O)cc1` [DILTIAZEM], for which the IC50 result is listed as “Not Active” and the Ki entry is on record as “Not Active”.

With `C/C=C1\[C@H]2C=C(C)C[C@]1(N)c1ccc(=O)[nH]c1C2` [HUPERZINE A], the IC50 result was “Not Active” and the Ki entry is listed as “Not Active”.

For the next data set, the target named is T4, Thromboxane-A synthase (Homo sapiens, UniProt P24557).
T4 sequence (P24557 whole entry): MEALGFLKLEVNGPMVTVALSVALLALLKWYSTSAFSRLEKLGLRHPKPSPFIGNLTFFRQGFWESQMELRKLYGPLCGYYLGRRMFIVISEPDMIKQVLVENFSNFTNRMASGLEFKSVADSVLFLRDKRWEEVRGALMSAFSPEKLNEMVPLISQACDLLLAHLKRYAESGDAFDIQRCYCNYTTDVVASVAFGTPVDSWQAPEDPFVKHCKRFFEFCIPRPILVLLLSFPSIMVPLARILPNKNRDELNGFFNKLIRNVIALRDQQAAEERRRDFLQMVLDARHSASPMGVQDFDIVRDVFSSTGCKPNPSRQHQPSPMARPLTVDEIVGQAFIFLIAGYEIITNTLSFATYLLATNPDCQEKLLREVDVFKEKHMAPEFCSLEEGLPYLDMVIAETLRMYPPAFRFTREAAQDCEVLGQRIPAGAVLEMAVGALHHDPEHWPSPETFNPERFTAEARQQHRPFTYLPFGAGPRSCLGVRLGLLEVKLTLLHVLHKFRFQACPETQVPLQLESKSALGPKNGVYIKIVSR
Description: biochemical. The data set is classed as tissue-based, Platelet. The following applies: platelet.
For `CNC(=O)Oc1ccc2c(c1)[C@]1(C)CCN(C)[C@@H]1N2C` [PHYSOSTIGMINE], the IC50 entry was “Not Active”.

For `COc1ccc([C@@H]2Sc3ccccc3N(CCN(C)C)C(=O)[C@@H]2OC(C)=O)cc1` [DILTIAZEM], the IC50 entry is “Not Active”.

With `NCC(=O)O` [GLYCINE], the IC50 entry is “Not Active”.

As to `O=C(O)c1cn(C2CC2)c2cc(N3CCNCC3)c(F)cc2c1=O` [CIPROFLOXACIN], the IC50 result is listed as “Not Active”.

Turning to `C/C=C1\[C@H]2C=C(C)C[C@]1(N)c1ccc(=O)[nH]c1C2` [HUPERZINE A], the IC50 result was “Not Active”.

As to `O=C1OCCN1/N=C/c1ccc([N+](=O)[O-])o1` [FURAZOLIDONE], the IC50 entry is “Not Active”.

A further data set concerns the target Cytochrome P450 2C19 (Homo sapiens, UniProt P33261). Further: in other assays of this panel Not Active means under 50% inhibition at 10 µM.
Assay: not given
Conditions: bti-tn-5b1-4.
With `CNC(=O)Oc1ccc2c(c1)[C@]1(C)CCN(C)[C@@H]1N2C` [PHYSOSTIGMINE], the IC50 result is given as “Not Active” and the Ki result was “Not Active”.

As for `COc1ccc([C@@H]2Sc3ccccc3N(CCN(C)C)C(=O)[C@@H]2OC(C)=O)cc1` [DILTIAZEM], the IC50 entry is reported as “Not Active” and the Ki entry was “Not Active”.

Take `C/C=C1\[C@H]2C=C(C)C[C@]1(N)c1ccc(=O)[nH]c1C2` [HUPERZINE A]: the IC50 result is given as “Not Active” and the Ki entry was “Not Active”.

These data come from ChEMBL document CHEMBL1909046, “DrugMatrix in vitro pharmacology data”.
